The conditions of data set [1]: cited from earlier work.
In the next data set the test system is bacteria. The experiment in a line: In vitro bacterial kill in the presence of interfering compounds found in poultry ingesta. Format: cell-based. Particulars: in the presence of potentially interfering compounds of poultry ingesta. The text has this: Organic compounds have been evaluated for biocidal efficacy in the upper GI tract of poultry, including D-limonene. […] Organic acids have also found utility as a drinking water biocide for gut bacteria.

Data set [2] deals with Salmonella enteritidis. Briefly: Reduction of Salmonella in broiler crops under different consumption pressures (Example 7). Format: in vivo. Particulars: 0.003125% (30 ppm) in drinking water. The method, then: Another experiment was designed to further characterize the disinfection effect of perlactic acids when different consumption pressures were placed on 8 week-old broilers. All of the birds had the feed removed 8 hours prior to slaughter. Perlactic acid was added at 0.003125% (30 ppm) to the drinking water for the last 8 hours of the study (feed withdrawal period). The first treatment group had water removed 8 hours prior to the 8 h feed withdrawal (PL 8-8-8) and the second treatment group had only feed withdrawal/perlactic treatment (PL 8—8). The last group had access to the peracid in their drinking water 12 hours prior to slaughter and the feed taken up 4 hours after that yielding a final feed withdrawal time of 8 h (PL 12-8). At the conclusion of the study, the crops were processed microbiologically similar to the methods described for FIG. 3.

In data set [3] the test system is Salmonella enteritidis. Briefly: In vitro reduction of Salmonella enteritidis in the presence of autoclaved broiler feed. The data set is classed as cell-based. Particulars: 1 h, 37° C. The protocol:
Another study was performed to determine the bactericidal effects of the same three peracids investigated in the first study. Eleven tubes were filled with 0.5 g of autoclaved broiler feed to which 100 ul of a Salmonella enteritidis culture broth was added. Two of the tubes were additionally filled with 1.9 ml of distilled water and the remaining nine were filled with an additional 1.7 ml of H2O. The peracids were added to the nine tubes to achieve a 0.0125% of each of the three peracids and two subsequent dilutions to achieve 0.00625% and 0.003125% of each. The samples were incubated at 37° C. and vortexed. After 1 h, the samples were plated and diluted to yield a plate count of 10^4 and 10^3 cfu/ml

Data set [4] has as its system Salmonella enteritidis. Briefly: Reduction of Salmonella in crops of SE challenged broilers, perlactic acid vs lactic acid and hydrogen peroxide (Example 8). The data set is classed as in vivo. Particulars: 30 ppm in drinking water for 8 hours. The protocol: In the final broiler study, forty-five 8-week old broilers were divided up into 3 groups with […]. Upon feed withdrawal, all birds were gavaged with 1 ml of a 1×10^8 challenge of Salmonella enteritidis. At this time, all feed was removed and the drinking water treatments administered. […] All groups received the same withdrawal time of 8 hours. At the time of kill, the crops were aseptically collected after cervical dislocation. The crops were added to […] bags containing 10 ml of PBS. The bags were stomached for 30 sec where upon 250 μl were removed and added to 2.25 ml of PBS. […] Groups 2 and 3 were directly plated from the […] bags by taking 100 μl from the bag and spread plating it onto BGA plates. These plates were incubated for 24 hrs at 37° C. The plates were counted for CFUs and log 10 reductions. After the bags had been used for dilution purposes, 9.0 ml of tetrathionate broth was added for enrichment purposes. These bags were incubated along with the plates. 24 hours later, 1 loopful of the bag contents were streaked onto BGA plates for +/- observations.

In data set [5] the test system is Salmonella enteritidis. Briefly: Reduction of Salmonella in broiler crops, peracid in drinking water during 8 h feed withdrawal (Example 6). The data set is classed as in vivo. The note with it: 8 h exposure, broilers. The method, then:
To determine the biocidal effect of perlactic and percitric on Salmonella in the upper GI tract (crops) of broiler chickens, peracid solutions were added to the drinkers such that the concentration of perlactic was 0.006 or 0.003% and percitric was at a 0.03% concentration. The birds were deprived of water for 8 h prior to an 8 h feed withdrawal period and allowed to drink the water for 8 h. Prior to reintroduction of the water with the test compounds, the birds were gavaged with 1 ml of 10^8 Salmonella. After the 8 h test consumption, the birds were terminated, the crops removed aseptically, stomached for 30 seconds, diluted and plated onto BGA with NO/NA.

For data set [6] the following is noted: in water, alcohol, ether, and sulfuric acid; cited from earlier work.
The subject of data set [7] is bacteria in the crops of market-age broilers. Briefly: Biocidal effect of a drinking water oxidant in the crops of market-age broilers. Particulars: dissolved in drinking water. Format: in vivo. The protocol: A variety of chemicals have been evaluated for efficacy as a drinking water-based biocide for administration to birds during the period of feed withdrawal. […] It was found, however, that the biocidal effect of this dissolved, short-lived oxidant was minimal in the crops of market-age broilers. This ineffectiveness is thought to be due primarily to the high ozone demand of the ingesta itself, which consumes the majority of the ozone and subsequently prevents delivery of sufficient ozone to the bacteria surfaces.

The mark [8] stands for this setting: all concentrations (0.0125%, 0.00625%, 0.003125%).
Where [9] appears, read: highest concentration (0.0125%).

`OO` [HP, hydrogen peroxide, reference compound]: the “loss of active ingredients” value in data set [1] (30 to 90% solution) is recorded as “less than 1 % per year”.
With `C=C(C)[C@H]1CC=C(C)CC1` [D-limonene], the “in vitro antibacterial effect” value with bacteria is “excellent bacterial kills”.
With `CC(O)C(=O)OO` (centres unmarked) [perlactic acid], in the data set with Salmonella enteritidis [2] (same concentrate used 1 week later), the “effectiveness in reducing Salmonella in crops compared to FIG. 3” value is “diminished”. The “influence of increased exposure time or water deprivation prior to feed withdrawal on biocidal effect” value in the data set with Salmonella enteritidis [2] (PL 8-8-8, PL 8-8, PL 12-8) is “does not increase the biocidal effect”. Besides, the entries for the “biocidal effect on Salmonella enteritidis” value in the data set with Salmonella enteritidis [3] (setting [8]) and with Salmonella enteritidis [3] (setting [9]) were “showed a disinfection efficacy at all concentrations” and “eliminated the Salmonella to levels that fell below the detection limit of this assay”, respectively. Besides, the “reduction in Salmonella in the crop as compared to the control” value in the data set on Salmonella enteritidis [4] was 2.71 Log10. Further, the “log reduction of Salmonella in the crop” value in the data set on Salmonella enteritidis [5] (0.003% in drinking water) is given as “two”. The “reduction of Salmonella in the crop” value in the data set on Salmonella enteritidis [5] (0.006 or 0.003% in drinking water) was “multiple log reduction”.
`CC(=O)O` [acetic acid]: the “in vitro antibacterial effect” value in the data set with bacteria is reported as “excellent in vitro antibacterial capability”.
For `CC(=O)OO` [peracetic acid], the solubility entry in data set [6] is “freely soluble”. Further, in the data set on Salmonella enteritidis [3] (setting [8]), the “biocidal effect on Salmonella enteritidis” value is recorded as “poor biocide”. Further, the “time to lose half its strength through hydrolysis” value in data set [1] (1% solution) is recorded as 6 days.
On to percitric acid, for which the “biocidal effect on Salmonella enteritidis” value with Salmonella enteritidis [3] (diluted samples (0.00625%, 0.003125%)) is “not as efficient”; in the data set on Salmonella enteritidis [3] (setting [9]) it was “significant biocidal effects”. Besides, the “reduction of Salmonella in the crop” value in the data set on Salmonella enteritidis [5] (0.03% in drinking water) is “multiple log reduction”.
With `O=[O+][O-]` [Ozone], in data set [7], the “biocidal effect in the crops” value is “minimal”.

(Values after patent US6518307B2, “Control of microbial populations in the gastrointestinal tract of animals” (Lynntech, Inc., priority 2000, dated 2003).)
